From patent US12286453B2, “Methods of sequencing using nucleotides with 3′ acetal blocking group” (ILLUMINA CAMBRIDGE LIMITED, priority 2020, dated 2025)

Assay: Solution cleavage efficiency of palladium reagent formulations (HPLC kinetics)
Type: physicochemical
Conditions: 1 mM Pd species, 0.1 mM substrate, RT; 3 or 3.5 equivalents of THP vs 10 equivalents for [(Allyl)PdCl]2
Protocol: The cleavage efficiency was determined by measuring the relative rate of cleavage of a 3′-AOM-nucleotide substrate. Briefly, to a 0.1 mM solution of 3′-AOM-nucleotide substrate in 100 mM buffer was added a stock solution of a palladium reagent to a final concentration of 1 mM in Pd species. The solution was incubated at RT and the reaction kinetic was monitored by taking aliquots from the reaction at set time points, quenching them with a 1:1 solution of EDTA/H2O2 (0.1:0.1 M) and analyzing them by HPLC for the formation of 3′-OH nucleotide and the disappearance of the 3′-AOM nucleotide substrate.

[Cl-].[Cl-].[Cl][Pd][Cl].[Na+].[Na+] [Na2PdCl4]
cleavage efficiency (relative rate of cleavage): comparable to that of [(Allyl)PdCl]2
